Measurements published in patent publication US10988449B2, “Isoxazole derivatives as nuclear receptor agonists and uses thereof” (IL DONG PHARMACEUTICAL CO., LTD., priority 2017, dated 2021).
Where two headings read alike, the source gives them in different places.

How the values were obtained:
[1] = db/db, ob/ob and KK-A(y)mice; cited from earlier work
[2] = Mouse pharmacokinetics; assay type: in vivo; parameters: concentration or dose not given beside the values; conditions: Balb/c male mice, blood samples 15 to 1140 min, LC-MS/MS
Protocol: To evaluate the pharmacokinetics test, the invented 18 compounds of examples were determined as follows. Blood samples are collected at 15, 30, 60, 120, 240, 480, 1140 min. Quantification is by using a LC-MS/MS method specific to the selected compound. Pharmacokinetics parameters are calculated using WinNonLinnon compartmental analysis software.

[3] = target: T1, human FXR (Homo sapiens, UniProt Q96RI1); test: FXR reporter assay (cellular FXR activities); assay type: cell-based; conditions: for EC50: FXR reporter cells, 24 hours incubation, luciferase, read-out: Reporter Cell EC50; for Emax: read-out: Emax (%) (GW4064 Emax = 100%)
T1 construct: expressed in transfected cells
T1 sequence (Q96RI1 1-486): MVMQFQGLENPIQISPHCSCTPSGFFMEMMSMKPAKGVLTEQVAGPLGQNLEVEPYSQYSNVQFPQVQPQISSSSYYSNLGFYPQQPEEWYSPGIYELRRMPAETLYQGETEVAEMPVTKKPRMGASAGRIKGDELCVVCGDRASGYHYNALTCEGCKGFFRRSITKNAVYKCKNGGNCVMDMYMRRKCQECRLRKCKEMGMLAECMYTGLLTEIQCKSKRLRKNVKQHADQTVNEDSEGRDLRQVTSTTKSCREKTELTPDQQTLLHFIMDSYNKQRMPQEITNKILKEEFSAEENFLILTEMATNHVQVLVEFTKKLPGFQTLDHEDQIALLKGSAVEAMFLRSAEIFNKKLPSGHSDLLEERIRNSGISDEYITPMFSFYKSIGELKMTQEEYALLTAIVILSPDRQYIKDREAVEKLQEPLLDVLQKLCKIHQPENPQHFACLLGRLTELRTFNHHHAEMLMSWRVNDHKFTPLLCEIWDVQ
Summary of the method: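 EC50 derived from luciferase read-out after 24 h (37 °C, 5% CO2) treatment of human-FXR-expressing reporter cells with serially diluted compound.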

[4] = multiple rodent models; cited from earlier work
[5] = in vivo; cited from earlier work
[6] = test system: hepatic stellate cells (HSC); conditions: cultured HSCs; cited from earlier work

| Compound | EC50 [3] [nM] | Emax [3] [%] | AUC ([2]; mouse, read-out: AUC) [ng·h/mL] | also measured |
| --- | --- | --- | --- | --- |
| CC(C)c1onc(-c2c(Cl)cccc2Cl)c1COc1ccc(/C=C/c2cccc(C(=O)O)c2)c(Cl)c1 [WO2000037077 GW4064] |  |  |  | insulin sensitivity [1]: improved insulin sensitivity; plasma glucose levels [1]: reduced plasma glucose levels; AUC [2]: 253.31 ng·h/mL |
| O=C(O)c1cc(C#Cc2ccc(OCc3c(-c4c(Cl)cccc4Cl)noc3C3CC3)cc2Cl)c2cc[nH]c2c1 [Compound I-91, 4-((2-chloro-4-((5-cyclopropyl-3-(2,6-dichlorophenyl)isoxazol-4-yl)methoxy)phenyl)ethynyl)-1H-indole-6-carboxylic acid] | ≤ 20 | > 100 | 544 |  |
| O=C(O)c1ccc(C#Cc2ccc(OCc3c(-c4c(Cl)cccc4Cl)noc3C3CC3)cc2Cl)cc1 [Compound I-16, 4-((2-chloro-4-((5-cyclopropyl-3-(2,6-dichlorophenyl)isoxazol-4-yl)methoxy)phenyl)ethynyl)benzoic acid] | 60 to 200 | 91 | 2250 |  |
| CC(C)(C)OC(=O)Nc1cc(C#Cc2ccc(OCc3c(-c4c(Cl)cccc4Cl)noc3C3CC3)cc2Cl)cc(C(=O)O)c1 [Compound I-77, 3-((tert-butoxycarbonyl)amino)-5-((2-chloro-4-((5-cyclopropyl-3-(2,6-dichlorophenyl)isoxazol-4-yl)methoxy)phenyl)ethynyl)benzoic acid] | ≤ 20 | 100 | 1010 |  |
| CC(C)c1nc2cc(C#Cc3ccc(OCc4c(-c5c(Cl)cccc5Cl)noc4C4CC4)cc3Cl)cc(C(=O)O)c2o1 [Compound I-106, 5-((2-chloro-4-((5-cyclopropyl-3-(2,6-dichlorophenyl)isoxazol-4-yl)methoxy)phenyl)ethynyl)-2-isopropylbenzo[d]oxazole-7-carboxylic acid] | 20 to 60 | 96 | 2250 |  |
| CNc1cc(C#Cc2ccc(OCc3c(-c4c(Cl)cccc4Cl)noc3C3CC3)cc2Cl)cc(C(=O)O)c1 [Compound I-52, 3-((2-chloro-4-((5-cyclopropyl-3-(2,6-dichlorophenyl)isoxazol-4-yl)methoxy)phenyl)ethynyl)-5-(methylamino)benzoic acid] | 20 to 60 | > 100 | 3310 |  |
| O=C(O)c1cc(F)cc(C#Cc2ccc(OCc3c(-c4c(Cl)cccc4Cl)noc3C3CC3)cc2Cl)c1 [Compound I-30, 3-((2-chloro-4-((5-cyclopropyl-3-(2,6-dichlorophenyl)isoxazol-4-yl)methoxy)phenyl)ethynyl)-5-fluorobenzoic acid] | 20 to 60 | 92 | 680 |  |
| CN(C)c1cc(C#Cc2ccc(OCc3c(-c4c(Cl)cccc4Cl)noc3C3CC3)cc2Cl)cc(C(=O)O)c1 [Compound I-21, 3-((2-chloro-4-((5-cyclopropyl-3-(2,6-dichlorophenyl)isoxazol-4-yl)methoxy)phenyl)ethynyl)-5-(dimethylamino)benzoic acid] | ≤ 20 | 92 | 6140 |  |
| CC[C@H]1[C@@H](O)[C@@H]2[C@H](CC[C@]3(C)[C@@H]([C@H](C)CCC(=O)O)CC[C@@H]23)[C@@]2(C)CC[C@@H](O)C[C@@H]12 [Compound 6EtCDCA, 6-ethyl-chenodeoxycholic acid] |  |  |  | hepatic fibrosis [4]: promote resolution of hepatic fibrosis; impairment of bile flow [5]: fully reverse the impairment of bile flow; liver cell injury caused by the cytotoxic lithocholic acid [5]: protect the hepatocytes against liver cell injury; expression of fibrotic markers such as α-smooth muscle actin and α1(I) collagen [6]: decreased expression of fibrotic markers |
| O=C(O)c1ccc(Cl)c(C#Cc2ccc(OCc3c(-c4c(Cl)cccc4Cl)noc3C3CC3)cc2Cl)c1 [Compound I-28, 4-chloro-3-((2-chloro-4-((5-cyclopropyl-3-(2,6-dichlorophenyl)isoxazol-4-yl)methoxy)phenyl)ethynyl)benzoic acid] | 60 to 200 | 91 | 1780 |  |
| Cc1cc(C#Cc2ccc(OCc3c(-c4c(Cl)cccc4Cl)noc3C3CC3)cc2Cl)cc(C(=O)O)c1 [Compound I-63, 3-((2-chloro-4-((5-cyclopropyl-3-(2,6-dichlorophenyl)isoxazol-4-yl)methoxy)phenyl)ethynyl)-5-methylbenzoic acid] | 60 to 200 | 78 | 11900 |  |
| O=C(O)c1cccc(C#Cc2ccc(OCc3c(-c4c(Cl)cccc4Cl)noc3C3CC3)cc2)c1 [Compound I-2, 3-((4-((5-cyclopropyl-3-(2,6-dichlorophenyl)isoxazol-4-yl)methoxy)phenyl)ethynyl)benzoic acid] | > 1000 | > 100 | 277 |  |
| O=C(O)c1cccc(C#Cc2ccc(OCc3c(-c4c(Cl)cccc4Cl)noc3C3CC3)cc2Cl)c1 [Compound I-15, 3-((2-chloro-4-((5-cyclopropyl-3-(2,6-dichlorophenyl)isoxazol-4-yl)methoxy)phenyl)ethynyl)benzoic acid] | 60 to 200 | 82 | 521 |  |
